How the values were obtained:
[1] = system: Proto-oncogene tyrosine-protein kinase receptor Ret (Homo sapiens), P07949 [V804M]; experiment: Inhibition of human RET kinase-V804M mutant at 0.1 uM using RRRRRRRRRRRVYSTDYYRLFNPS as substrate in presence of [gamma33P]-ATP and 10 uM ATP by radiometric HotSpot assay relative to control
[2] = Inhibition of human […]-RET kinase-V804M mutant in presence of [gamma33P]-ATP and 10 uM ATP by radiometric HotSpot assay
[3] = target: Proto-oncogene tyrosine-protein kinase receptor Ret (Homo sapiens, UniProt P07949, G810R); experiment: Inhibition of human RET kinase-G810R mutant using RRRRRRRRRRRVYSTDYYRLFNPS as substrate in presence of [gamma33P]-ATP and 10 uM ATP by radiometric HotSpot assay
Proto-oncogene tyrosine-protein kinase receptor Ret (Homo sapiens, UniProt P07949, G810R), sequence (P07949 29-1114 G810R limits assumed): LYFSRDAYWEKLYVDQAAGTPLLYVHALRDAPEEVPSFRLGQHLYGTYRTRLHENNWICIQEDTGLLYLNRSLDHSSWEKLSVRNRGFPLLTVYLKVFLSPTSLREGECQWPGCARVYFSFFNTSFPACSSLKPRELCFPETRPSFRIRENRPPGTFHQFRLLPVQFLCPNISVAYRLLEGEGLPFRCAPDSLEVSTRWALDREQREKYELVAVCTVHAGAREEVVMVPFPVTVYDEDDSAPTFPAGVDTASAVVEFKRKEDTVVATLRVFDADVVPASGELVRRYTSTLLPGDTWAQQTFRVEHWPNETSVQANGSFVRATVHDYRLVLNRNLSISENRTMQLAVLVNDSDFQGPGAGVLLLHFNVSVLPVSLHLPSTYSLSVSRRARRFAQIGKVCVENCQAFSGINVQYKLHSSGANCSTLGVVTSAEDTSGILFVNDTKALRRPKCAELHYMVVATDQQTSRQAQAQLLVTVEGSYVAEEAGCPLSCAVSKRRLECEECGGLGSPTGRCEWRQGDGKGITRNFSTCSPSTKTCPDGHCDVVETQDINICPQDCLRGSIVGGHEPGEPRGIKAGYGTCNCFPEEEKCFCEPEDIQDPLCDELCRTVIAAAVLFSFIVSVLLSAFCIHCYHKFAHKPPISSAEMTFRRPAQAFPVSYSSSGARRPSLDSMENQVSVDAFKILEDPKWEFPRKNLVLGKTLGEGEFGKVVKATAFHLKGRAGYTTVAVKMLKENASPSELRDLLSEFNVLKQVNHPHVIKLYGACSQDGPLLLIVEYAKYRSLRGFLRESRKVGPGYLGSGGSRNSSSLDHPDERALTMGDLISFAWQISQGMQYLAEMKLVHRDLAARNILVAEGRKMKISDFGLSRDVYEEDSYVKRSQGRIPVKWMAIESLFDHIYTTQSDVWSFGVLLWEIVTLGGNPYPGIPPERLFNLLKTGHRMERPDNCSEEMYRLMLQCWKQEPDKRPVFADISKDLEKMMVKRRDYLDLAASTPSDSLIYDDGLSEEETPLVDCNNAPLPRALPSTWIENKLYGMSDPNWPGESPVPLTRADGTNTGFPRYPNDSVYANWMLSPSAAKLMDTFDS

[4] = target: Proto-oncogene tyrosine-protein kinase receptor Ret (Homo sapiens, UniProt P07949, V804M); experiment: Inhibition of human RET kinase-V804M mutant using RRRRRRRRRRRVYSTDYYRLFNPS as substrate in presence of [gamma33P]-ATP and 10 uM ATP by radiometric HotSpot assay
Proto-oncogene tyrosine-protein kinase receptor Ret (Homo sapiens, UniProt P07949, V804M), sequence (P07949 29-1114 V804M limits assumed): as the sequence (P07949 29-1114 G810R limits assumed) above, with V776M, R782G counted along it

[5] = system: Proto-oncogene tyrosine-protein kinase receptor Ret (Homo sapiens), P07949 [G810R]; experiment: Inhibition of human RET kinase-G810R mutant assessed as residual activity at 0.1 uM using RRRRRRRRRRRVYSTDYYRLFNPS as substrate in presence of [gamma33P]-ATP and 10 uM ATP by radiometric HotSpot assay
Proto-oncogene tyrosine-protein kinase receptor Ret (Homo sapiens), P07949 [G810R], sequence (P07949 whole entry G810R): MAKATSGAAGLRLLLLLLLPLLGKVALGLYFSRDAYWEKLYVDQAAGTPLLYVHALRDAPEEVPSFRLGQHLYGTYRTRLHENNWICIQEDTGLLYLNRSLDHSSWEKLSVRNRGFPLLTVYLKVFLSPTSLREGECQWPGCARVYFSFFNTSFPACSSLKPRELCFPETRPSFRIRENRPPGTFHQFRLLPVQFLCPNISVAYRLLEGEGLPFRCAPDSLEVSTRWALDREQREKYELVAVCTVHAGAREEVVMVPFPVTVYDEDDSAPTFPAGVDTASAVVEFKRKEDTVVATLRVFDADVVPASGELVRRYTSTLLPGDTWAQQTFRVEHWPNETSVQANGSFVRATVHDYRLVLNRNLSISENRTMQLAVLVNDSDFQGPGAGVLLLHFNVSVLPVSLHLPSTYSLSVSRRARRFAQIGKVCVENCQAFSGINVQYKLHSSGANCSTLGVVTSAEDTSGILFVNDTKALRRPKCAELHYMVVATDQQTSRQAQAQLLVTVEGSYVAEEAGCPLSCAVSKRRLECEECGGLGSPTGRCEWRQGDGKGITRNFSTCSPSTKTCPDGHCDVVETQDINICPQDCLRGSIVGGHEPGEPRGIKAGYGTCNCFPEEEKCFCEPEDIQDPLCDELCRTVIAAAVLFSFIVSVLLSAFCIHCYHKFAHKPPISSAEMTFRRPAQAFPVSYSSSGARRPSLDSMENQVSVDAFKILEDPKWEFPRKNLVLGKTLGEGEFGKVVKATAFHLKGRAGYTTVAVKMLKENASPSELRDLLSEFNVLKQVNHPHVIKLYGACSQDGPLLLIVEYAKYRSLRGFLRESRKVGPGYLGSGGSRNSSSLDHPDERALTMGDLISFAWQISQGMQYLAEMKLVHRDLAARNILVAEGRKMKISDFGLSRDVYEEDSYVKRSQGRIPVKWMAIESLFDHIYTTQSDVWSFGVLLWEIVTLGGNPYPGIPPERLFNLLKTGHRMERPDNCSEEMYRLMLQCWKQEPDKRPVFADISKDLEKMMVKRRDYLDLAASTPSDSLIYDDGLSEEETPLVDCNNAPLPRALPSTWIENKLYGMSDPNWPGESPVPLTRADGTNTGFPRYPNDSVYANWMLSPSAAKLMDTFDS

[6] = target: Proto-oncogene tyrosine-protein kinase receptor Ret (Homo sapiens, UniProt P07949); experiment: Inhibition of human wild type RET kinase using RRRRRRRRRRRVYSTDYYRLFNPS as substrate in presence of [gamma33P]-ATP and 10 uM ATP by radiometric HotSpot assay
Proto-oncogene tyrosine-protein kinase receptor Ret (Homo sapiens, UniProt P07949), sequence (P07949 whole entry): as the sequence (P07949 whole entry G810R) above, with R810G counted along it

[7] = target: Kinesin-1 heavy chain/ Tyrosine-protein kinase receptor RET (Homo sapiens, UniProt P07949); experiment: Inhibition of human […]-RET kinase in presence of [gamma33P]-ATP and 10 uM ATP by radiometric HotSpot assay; type: protein assay
Kinesin-1 heavy chain/ Tyrosine-protein kinase receptor RET, sequence (P07949 whole entry, the tested form may be a part): as the sequence (P07949 whole entry G810R) above, with R810G counted along it
Kinesin-1 heavy chain/ Tyrosine-protein kinase receptor RET, sequence (P33176 whole entry, further chain, the tested form may be a part): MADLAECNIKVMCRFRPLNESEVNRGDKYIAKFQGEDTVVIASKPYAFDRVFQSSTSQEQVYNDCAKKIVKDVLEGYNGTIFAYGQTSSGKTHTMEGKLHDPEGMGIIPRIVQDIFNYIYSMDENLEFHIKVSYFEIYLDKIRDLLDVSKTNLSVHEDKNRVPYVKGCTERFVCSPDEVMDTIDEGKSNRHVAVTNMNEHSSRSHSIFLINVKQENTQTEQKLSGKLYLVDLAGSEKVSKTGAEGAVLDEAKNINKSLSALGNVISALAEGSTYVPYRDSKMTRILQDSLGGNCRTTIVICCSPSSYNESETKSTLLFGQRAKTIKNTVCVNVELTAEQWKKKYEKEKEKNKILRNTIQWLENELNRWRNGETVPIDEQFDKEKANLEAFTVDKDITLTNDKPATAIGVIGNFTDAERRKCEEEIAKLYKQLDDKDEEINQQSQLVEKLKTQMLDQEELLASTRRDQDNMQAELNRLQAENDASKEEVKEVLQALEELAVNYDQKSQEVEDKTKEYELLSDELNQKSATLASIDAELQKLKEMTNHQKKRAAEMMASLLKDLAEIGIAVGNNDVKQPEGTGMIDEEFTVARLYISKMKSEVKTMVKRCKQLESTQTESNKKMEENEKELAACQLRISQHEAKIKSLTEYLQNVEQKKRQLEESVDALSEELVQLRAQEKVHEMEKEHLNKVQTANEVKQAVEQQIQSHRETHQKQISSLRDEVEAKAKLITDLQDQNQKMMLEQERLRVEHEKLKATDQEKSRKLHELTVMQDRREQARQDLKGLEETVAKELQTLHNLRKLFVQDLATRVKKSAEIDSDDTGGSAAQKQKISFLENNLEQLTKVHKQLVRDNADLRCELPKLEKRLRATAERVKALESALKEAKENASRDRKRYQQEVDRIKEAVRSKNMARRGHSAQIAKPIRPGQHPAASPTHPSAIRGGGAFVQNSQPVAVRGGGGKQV

BaF3 [8] = experiment: Cytotoxicity against mouse BaF3 cells expressing […]-RET kinase-V804L mutant fusion protein assessed as inhibition of cell proliferation incubated for 72 hrs by CCK8 assay; type: functional, cell-based; details: BaF3, 72 h
BaF3 [9] = experiment: Cytotoxicity against mouse BaF3 cells expressing […]-RET kinase fusion protein assessed as inhibition of cell proliferation incubated for 72 hrs by CCK8 assay; type: functional, cell-based; details: BaF3, 72 h
BaF3 [10] = experiment: Cytotoxicity against mouse BaF3 cells expressing […]-RET kinase-G810C mutant fusion protein assessed as inhibition of cell proliferation incubated for 72 hrs by CCK8 assay; type: functional, cell-based; details: BaF3, 72 h
BaF3 [11] = experiment: Cytotoxicity against mouse BaF3 cells expressing […]-RET kinase-G810R mutant fusion protein assessed as inhibition of cell proliferation incubated for 72 hrs by CCK8 assay; type: functional, cell-based; details: BaF3, 72 h
BaF3 [12] = experiment: Cytotoxicity against mouse BaF3 cells expressing […]-RET kinase-G810A mutant fusion protein assessed as inhibition of cell proliferation incubated for 72 hrs by CCK8 assay; type: functional, cell-based; details: BaF3, 72 h
BaF3 [13] = experiment: Cytotoxicity against mouse BaF3 cells expressing […]-RET kinase-G810S mutant fusion protein assessed as inhibition of cell proliferation incubated for 72 hrs by CCK8 assay; type: functional, cell-based; details: BaF3, 72 h
BaF3 [14] = experiment: Cytotoxicity against mouse BaF3 cells expressing […]-RET kinase-V804M mutant fusion protein assessed as inhibition of cell proliferation incubated for 72 hrs by CCK8 assay; type: functional, cell-based; details: BaF3, 72 h

Proto-oncogene tyrosine-protein kinase receptor Ret (Homo sapiens), P07949 [V804M], sequence (P07949 whole entry V804M): as the sequence (P07949 whole entry G810R) above, with V804M, R810G counted along it

Row | Compound | inhibition [1] [%] | IC50 [2] [µM] | IC50 [3] [µM] | IC50 [4] [µM] | Activity [5] [%] | IC50 [6] [µM] | IC50 [7] [µM] | IC50 (BaF3 [8]) [µM] | IC50 (BaF3 [9]) [µM] | IC50 (BaF3 [10]) [µM] | IC50 (BaF3 [11]) [µM] | IC50 (BaF3 [12]) [µM] | IC50 (BaF3 [13]) [µM] | IC50 (BaF3 [14]) [µM]
1 | Cc1ccc(C(=O)Nc2cc(CN3CCN(C)CC3)cc(C(F)(F)F)c2)cc1C#Cc1cnc2ccc(Cl)nn12 | 100 | 0.281 | 0.0198 | < 0.0005 | – | – | – | – | – | – | – | – | – | –
2 | CCOC(=O)c1nc2n(c1C#Cc1cc(C(=O)Nc3cc(-n4cnc(C)c4)cc(C(F)(F)F)c3)ccc1C)NC(NC1CC1)C=C2 (stereo not drawn) | – | – | – | – | – | – | – | 3.3 | 3 | 2.9 | 3.8 | 3.8 | 3 | –
3 | CCOC(=O)c1nc2ccc(NCCN3CCCCC3)nn2c1C#Cc1cc(C(=O)Nc2cc(-n3cnc(C)c3)cc(C(C)(C)C#N)c2)c(NCCN2CCCCC2)cc1C | – | – | – | – | – | – | – | 1.6 | 0.9 | 1.7 | 1.2 | 1.2 | 1.6 | –
4 | COc1ccc(CN2C3CC2CN(c2ccc(-c4cc(OCC(C)(C)O)cn5ncc(C#N)c45)cn2)C3)cn1 [SELPERCATINIB] | – | – | – | – | – | – | – | 0.02 | 0.01 | 5.8 | 2.1 | 0.26 | 0.4 | 0.1
5 | Cc1cn(-c2cc(NC(=O)c3cc(C#Cc4cnc5ccc(OCCN6CCOCC6)nn45)c(C)cc3F)cc(C(C)(C)C#N)c2)cn1 | – | 0.622 | 1.3 | 0.0074 | – | 0.345 | 0.0437 | 1.8 | 0.1 | 0.6 | 0.4 | 0.05 | 0.1 | 1.6
6 | CCOC(=O)c1nc2ccc(Nc3cc(C)[nH]n3)nn2c1C#Cc1cc(C(=O)Nc2cc(-n3cnc(C)c3)cc(C(F)(F)F)c2)ccc1C | – | > 2 | > 2 | 0.102 | – | 0.921 | > 2 | – | – | – | – | – | – | –

More lines, main results first:

Row | inhibition [1] [%] | IC50 [2] [µM] | IC50 [3] [µM] | IC50 [4] [µM] | Activity [5] [%] | IC50 [6] [µM] | IC50 [7] [µM] | Compound | IC50 (BaF3 [8]) [µM] | IC50 (BaF3 [9]) [µM] | IC50 (BaF3 [10]) [µM] | IC50 (BaF3 [11]) [µM] | IC50 (BaF3 [12]) [µM] | IC50 (BaF3 [13]) [µM] | IC50 (BaF3 [14]) [µM]
7 | – | 0.137 | 0.0898 | 0.0009 | 46.6 | – | – | COc1ccc(Nc2ccc3ncc(C#Cc4cc(C(=O)Nc5cc(CN6CCN(C)CC6)cc(C(F)(F)F)c5)ccc4C)n3n2)cc1 | – | – | – | – | – | – | –
8 | – | 0.0194 | 0.0253 | < 0.0005 | – | 0.0036 | 0.0012 | Cc1ccc(C(=O)Nc2ccc(CN3CCN(C)CC3)c(C(F)(F)F)c2)cc1C#Cc1cnc2ccc(OCCNC(C)C)nn12 | – | – | – | – | – | – | –
9 | – | 0.0478 | 0.0413 | 0.0001 | 26.4 | – | – | Cc1ccc(C(=O)Nc2cc(CN3CCN(C)CC3)cc(C(F)(F)F)c2)cc1C#Cc1cnc2ccc(N3CCOCC3)nn12 | – | – | – | – | – | – | –
10 | – | 0.0845 | 0.011 | < 0.0005 | – | 0.478 | 0.129 | Cc1ccc(C(=O)Nc2ccc(CN3CCN(C)CC3)c(C(F)(F)F)c2)cc1C#Cc1cnc2ccc(OCCN3CCOCC3)nn12 | – | – | – | – | – | – | –

From ChEMBL document CHEMBL5614446, “Side Chain Investigation of Imidazopyridazine as a Hinge Binder for Targeting Actionable Mutations of RET Kinase” (ACS Med Chem Lett, 2024)
